Measurements reported in ChEMBL document CHEMBL3407491, “Synthesis, characterization and in vitro photodynamic antimicrobial activity of basic amino acid-porphyrin conjugates” (Eur J Med Chem, 2015).
Values after ≈ are worked out from the molar mass of the structure shown. Active and inactive are the calls of the source. The rule behind the calls is not given here.

Assays:
[1] = Photostability at 2 x 10^-5 mol/L exposed to 4.2 mW/cm2 light energy density assessed as change in absorption spectra after 30 mins post irradiation; assay type: physicochemical; settings: 0.5 h, 20 µM
Staphylococcus aureus [2] = assay: Antibacterial activity against methicillin-resistant Staphylococcus aureus incubated in dark for 30 mins followed by exposure to light fluences at 650 nm and 6 J/cm2 and then incubated overnight measured after 24 hrs; assay type: functional; settings: light or radiation study
Staphylococcus aureus [3] = assay: Bactericidal activity against methicillin-resistant Staphylococcus aureus incubated in dark for 30 mins followed by exposure to light fluences at 650 nm and 6 J/cm2 and then incubated overnight followed by further incubation on LB agar plates for another 24 hrs; assay type: functional; settings: light or radiation study
Pseudomonas aeruginosa [4] = assay: Antibacterial activity against Pseudomonas aeruginosa ATCC 27853 incubated in dark for 30 mins followed by exposure to light fluences at 650 nm and 6 J/cm2 and then incubated overnight measured after 24 hrs; assay type: functional; settings: ATCC 27853, light or radiation study
Pseudomonas aeruginosa [5] = assay: Bactericidal activity against Pseudomonas aeruginosa ATCC 27853 incubated in dark for 30 mins followed by exposure to light fluences at 650 nm and 6 J/cm2 and then incubated overnight followed by further incubation on LB agar plates for another 24 hrs; assay type: functional; settings: ATCC 27853, light or radiation study
Escherichia coli [6] = assay: Antibacterial activity against Escherichia coli ATCC 25922 incubated in dark for 30 mins followed by exposure to light fluences at 650 nm and 6 J/cm2 and then incubated overnight measured after 24 hrs; assay type: functional; settings: ATCC 25922, light or radiation study
Escherichia coli [7] = assay: Bactericidal activity against Escherichia coli ATCC 25922 incubated in dark for 30 mins followed by exposure to light fluences at 650 nm and 6 J/cm2 and then incubated overnight followed by further incubation on LB agar plates for another 24 hrs; assay type: functional; settings: ATCC 25922, light or radiation study
Staphylococcus aureus [8] = assay: Antibacterial activity against methicillin-resistant Staphylococcus aureus incubated in dark for 30 mins measured after 24 hrs; assay type: functional
Staphylococcus aureus [9] = assay: Antibacterial activity against methicillin-resistant Staphylococcus aureus incubated in dark for 30 mins and grown for 24 hrs followed by further incubation on LB agar plates for another 24 hrs; assay type: functional
Pseudomonas aeruginosa [10] = assay: Antibacterial activity against Pseudomonas aeruginosa ATCC 27853 incubated in dark for 30 mins measured after 24 hrs; assay type: functional
Pseudomonas aeruginosa [11] = assay: Antibacterial activity against Pseudomonas aeruginosa ATCC 27853 incubated in dark for 30 mins and grown for 24 hrs followed by further incubation on LB agar plates for another 24 hrs; assay type: functional
Escherichia coli [12] = assay: Antibacterial activity against Escherichia coli ATCC 25922 incubated in dark for 30 mins measured after 24 hrs; assay type: functional
Escherichia coli [13] = assay: Antibacterial activity against Escherichia coli ATCC 25922 incubated in dark for 30 mins and grown for 24 hrs followed by further incubation on LB agar plates for another 24 hrs; assay type: functional
Escherichia coli [14] = assay: Antibacterial activity against Escherichia coli ATCC 25922 at 3.91 uM to 62.50 uM incubated in dark for 30 mins followed by exposure to light fluences at 650 nm and 6 J/cm2 and then incubated overnight measured after 24 hrs; assay type: functional, organism-based
Pseudomonas aeruginosa [15] = assay: Antibacterial activity against Pseudomonas aeruginosa ATCC 27853 at 3.91 uM to 62.50 uM incubated in dark for 30 mins followed by exposure to light fluences at 650 nm and 6 J/cm2 and then incubated overnight measured after 24 hrs; assay type: functional, organism-based
Staphylococcus aureus [16] = assay: Antibacterial activity against methicillin-resistant Staphylococcus aureus at 0.49 uM to 7.8 uM incubated in dark for 30 mins followed by exposure to light fluences at 650 nm and 6 J/cm2 and then incubated overnight measured after 24 hrs; assay type: functional, organism-based
Escherichia coli [17] = assay: Antibacterial activity against Escherichia coli ATCC 25922 at 0.49 uM to 7.8 uM incubated in dark for 30 mins followed by exposure to light fluences at 650 nm and 6 J/cm2 and then incubated overnight measured after 24 hrs; assay type: functional, organism-based
Pseudomonas aeruginosa [18] = assay: Antibacterial activity against Pseudomonas aeruginosa ATCC 27853 at 0.49 uM to 7.8 uM incubated in dark for 30 mins followed by exposure to light fluences at 650 nm and 6 J/cm2 and then incubated overnight measured after 24 hrs; assay type: functional, organism-based
[19] = Singlet oxygen generation of the compound exposed to 4.2 mW/cm2 light energy density assessed as singlet oxygen quantum yield measured at 410 nm in 10 seconds intervals of irradiation at 0.2 uM by DPBF scavenger based assay
[20] = Octanol water partition coefficient, log P of the compound by reverse-phase thin-layer chromatography; assay type: physicochemical

With `Nc1ccc(-c2c3nc(c(-c4ccccc4)c4ccc([nH]4)c(-c4ccccc4)c4nc(c(-c5ccccc5)c5ccc2[nH]5)C=C4)C=C3)cc1` the Activity [1] was < 20%, the MIC (Staphylococcus aureus [2]) was 125 µM (≈ 78.7 µg/mL) and the MBC (Staphylococcus aureus [3]) was 500 µM (≈ 315 µg/mL). For the same compound, the MIC (Pseudomonas aeruginosa [4]) was 62.5 µM (≈ 39.4 µg/mL), the MBC (Pseudomonas aeruginosa [5]) was 125 µM (≈ 78.7 µg/mL) and the MIC (Escherichia coli [6]) was 62.5 µM (≈ 39.4 µg/mL). The MBC (Escherichia coli [7]) was 125 µM (≈ 78.7 µg/mL), the MIC (Staphylococcus aureus [8]) was 125 µM (≈ 78.7 µg/mL) and the MBC (Staphylococcus aureus [9]) was 500 µM (≈ 315 µg/mL). It also gave an MIC (Pseudomonas aeruginosa [10]) of 125 µM (≈ 78.7 µg/mL), an MBC (Pseudomonas aeruginosa [11]) of 250 µM (≈ 157 µg/mL) and an MIC (Escherichia coli [12]) of 125 µM (≈ 78.7 µg/mL). The MBC (Escherichia coli [13]) was 500 µM (≈ 315 µg/mL), the Activity (Escherichia coli [14]) was “inactive” and the Activity (Pseudomonas aeruginosa [15]) was “inactive”. For the same compound, the Activity (Staphylococcus aureus [16]) was “inactive”, the Activity (Escherichia coli [17]) was “inactive” and the Activity (Pseudomonas aeruginosa [18]) was “inactive”.
In the case of `N=C(N)NCCC[C@H](N)C(=O)Nc1ccc(-c2c3nc(c(-c4ccc(N)cc4)c4ccc([nH]4)c(-c4ccc(N)cc4)c4nc(c(-c5ccc(N)cc5)c5ccc2[nH]5)C=C4)C=C3)cc1`, the Activity [1] is reported as < 20%, the Activity [19] is reported as 0.47 and the logP [20] is reported as 1.25. The MIC (Staphylococcus aureus [2]) was 62.5 µM (≈ 51.9 µg/mL), the MBC (Staphylococcus aureus [3]) was 500 µM (≈ 416 µg/mL) and the MIC (Pseudomonas aeruginosa [4]) was 62.5 µM (≈ 51.9 µg/mL). The MBC (Pseudomonas aeruginosa [5]) was 250 µM (≈ 208 µg/mL), the MIC (Escherichia coli [6]) was 62.5 µM (≈ 51.9 µg/mL) and the MBC (Escherichia coli [7]) was 125 µM (≈ 104 µg/mL). It also gave an MIC (Staphylococcus aureus [8]) of 62.5 µM (≈ 51.9 µg/mL), an MBC (Staphylococcus aureus [9]) of 500 µM (≈ 416 µg/mL) and an MIC (Pseudomonas aeruginosa [10]) of 62.5 µM (≈ 51.9 µg/mL). The MBC (Pseudomonas aeruginosa [11]) was 250 µM (≈ 208 µg/mL), the MIC (Escherichia coli [12]) was 62.5 µM (≈ 51.9 µg/mL) and the MBC (Escherichia coli [13]) was 125 µM (≈ 104 µg/mL). For the same compound, the Activity (Escherichia coli [14]) was “inactive”, the Activity (Pseudomonas aeruginosa [15]) was “inactive” and the Activity (Staphylococcus aureus [16]) was “inactive”. For the same compound, the Activity (Escherichia coli [17]) was “inactive” and the Activity (Pseudomonas aeruginosa [18]) was “inactive”.
With `N=C(N)NCCC[C@H](N)C(=O)Nc1ccc(-c2c3nc(c(-c4ccccc4)c4ccc([nH]4)c(-c4ccccc4)c4nc(c(-c5ccccc5)c5ccc2[nH]5)C=C4)C=C3)cc1` the Activity [1] was < 20%, the Activity [19] was 0.71 and the logP [20] was 1.45. The MIC (Staphylococcus aureus [2]) was 62.5 µM (≈ 49.1 µg/mL), the MBC (Staphylococcus aureus [3]) was 125 µM (≈ 98.2 µg/mL) and the MIC (Pseudomonas aeruginosa [4]) was 62.5 µM (≈ 49.1 µg/mL). For the same compound, the MBC (Pseudomonas aeruginosa [5]) was 125 µM (≈ 98.2 µg/mL), the MIC (Escherichia coli [6]) was 62.5 µM (≈ 49.1 µg/mL) and the MBC (Escherichia coli [7]) was 125 µM (≈ 98.2 µg/mL). It also gave an MIC (Staphylococcus aureus [8]) of 125 µM (≈ 98.2 µg/mL), an MBC (Staphylococcus aureus [9]) of 250 µM (≈ 196 µg/mL) and an MIC (Pseudomonas aeruginosa [10]) of 125 µM (≈ 98.2 µg/mL). The MBC (Pseudomonas aeruginosa [11]) was 250 µM (≈ 196 µg/mL), the MIC (Escherichia coli [12]) was 62.5 µM (≈ 49.1 µg/mL) and the MBC (Escherichia coli [13]) was 125 µM (≈ 98.2 µg/mL). For the same compound, the Activity (Escherichia coli [14]) was “inactive”, the Activity (Pseudomonas aeruginosa [15]) was “inactive” and the Activity (Staphylococcus aureus [16]) was “inactive”. For the same compound, the Activity (Escherichia coli [17]) was “inactive” and the Activity (Pseudomonas aeruginosa [18]) was “inactive”.
With `Nc1ccc(-c2c3nc(c(-c4ccc(N)cc4)c4ccc([nH]4)c(-c4ccc(N)cc4)c4nc(c(-c5ccc(N)cc5)c5ccc2[nH]5)C=C4)C=C3)cc1` the MIC (Staphylococcus aureus [2]) was 62.5 µM (≈ 42.2 µg/mL), the MBC (Staphylococcus aureus [3]) was 125 µM (≈ 84.4 µg/mL) and the MIC (Pseudomonas aeruginosa [4]) was 125 µM (≈ 84.4 µg/mL). For the same compound, the MBC (Pseudomonas aeruginosa [5]) was 250 µM (≈ 169 µg/mL), the MIC (Escherichia coli [6]) was 125 µM (≈ 84.4 µg/mL) and the MBC (Escherichia coli [7]) was 250 µM (≈ 169 µg/mL). The MIC (Staphylococcus aureus [8]) was 125 µM (≈ 84.4 µg/mL), the MBC (Staphylococcus aureus [9]) was 500 µM (≈ 337 µg/mL) and the MIC (Pseudomonas aeruginosa [10]) was 125 µM (≈ 84.4 µg/mL). For the same compound, the MBC (Pseudomonas aeruginosa [11]) was 250 µM (≈ 169 µg/mL), the MIC (Escherichia coli [12]) was 125 µM (≈ 84.4 µg/mL) and the MBC (Escherichia coli [13]) was 250 µM (≈ 169 µg/mL).
For `Nc1ccc(-c2c3nc(c(-c4ccc(N)cc4)c4ccc([nH]4)c(-c4ccccc4)c4nc(c(-c5ccccc5)c5ccc2[nH]5)C=C4)C=C3)cc1`, the Activity [1] was < 20%, the MIC (Staphylococcus aureus [2]) was 125 µM (≈ 80.6 µg/mL) and the MBC (Staphylococcus aureus [3]) was 250 µM (≈ 161 µg/mL). For the same compound, the MIC (Pseudomonas aeruginosa [4]) was 62.5 µM (≈ 40.3 µg/mL), the MBC (Pseudomonas aeruginosa [5]) was 125 µM (≈ 80.6 µg/mL) and the MIC (Escherichia coli [6]) was 62.5 µM (≈ 40.3 µg/mL). The MBC (Escherichia coli [7]) was 125 µM (≈ 80.6 µg/mL), the MIC (Staphylococcus aureus [8]) was 125 µM (≈ 80.6 µg/mL) and the MBC (Staphylococcus aureus [9]) was 500 µM (≈ 322 µg/mL). For the same compound, the MIC (Pseudomonas aeruginosa [10]) was 125 µM (≈ 80.6 µg/mL), the MBC (Pseudomonas aeruginosa [11]) was 250 µM (≈ 161 µg/mL) and the MIC (Escherichia coli [12]) was 125 µM (≈ 80.6 µg/mL). For the same compound, the MBC (Escherichia coli [13]) was 250 µM (≈ 161 µg/mL), the Activity (Escherichia coli [14]) was “inactive” and the Activity (Pseudomonas aeruginosa [15]) was “inactive”. For the same compound, the Activity (Staphylococcus aureus [16]) was “inactive”, the Activity (Escherichia coli [17]) was “inactive” and the Activity (Pseudomonas aeruginosa [18]) was “inactive”.
With `NCCCC[C@H](N)C(=O)Nc1ccc(-c2c3nc(c(-c4ccc(N)cc4)c4ccc([nH]4)c(-c4ccccc4)c4nc(c(-c5ccccc5)c5ccc2[nH]5)C=C4)C=C3)cc1` the Activity [1] was < 20%, the Activity [19] was 0.24 and the logP [20] was 1.47. For the same compound, the MIC (Staphylococcus aureus [2]) was 62.5 µM (≈ 48.3 µg/mL), the MBC (Staphylococcus aureus [3]) was 125 µM (≈ 96.6 µg/mL) and the MIC (Pseudomonas aeruginosa [4]) was 62.5 µM (≈ 48.3 µg/mL). For the same compound, the MBC (Pseudomonas aeruginosa [5]) was 125 µM (≈ 96.6 µg/mL), the MIC (Escherichia coli [6]) was 62.5 µM (≈ 48.3 µg/mL) and the MBC (Escherichia coli [7]) was 125 µM (≈ 96.6 µg/mL). The MIC (Staphylococcus aureus [8]) was 125 µM (≈ 96.6 µg/mL), the MBC (Staphylococcus aureus [9]) was 250 µM (≈ 193 µg/mL) and the MIC (Pseudomonas aeruginosa [10]) was 125 µM (≈ 96.6 µg/mL). For the same compound, the MBC (Pseudomonas aeruginosa [11]) was 250 µM (≈ 193 µg/mL), the MIC (Escherichia coli [12]) was 62.5 µM (≈ 48.3 µg/mL) and the MBC (Escherichia coli [13]) was 125 µM (≈ 96.6 µg/mL).
